According to publication PMC8179336, “Impact of sphingosine and acetylsphingosines on the aggregation and toxicity of metal-free and metal-treated amyloid-β” (Chemical Science, 2020):

Target: T1, amyloid-β (Aβ40) (Homo sapiens, UniProt P05067)
T1 construct: gene APP; Aβ40
Assay: ITC and 2D 1H-15N SOFAST-HMQC NMR (below and above the CAC)
Type: binding

T1 sequence (P05067 672-711 limits assumed): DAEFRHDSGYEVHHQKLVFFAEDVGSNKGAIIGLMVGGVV

| Compound | ITC and 2D 1H-15N SOFAST-HMQC NMR (below and above the CAC) |
| --- | --- |
| CCCCCCCCCCCCC/C=C/[C@H](OC(C)=O)[C@@H](N)CO [3-O-Ac-SP, (2S,3S,E)-2-amino-1-hydroxyoctadec-4-en-3-yl acetate] | These observations indicate weak and nonspecific interactions of both N-Ac-SP and 3-O-Ac-SP towards Aβ. |
| CCCCCCCCCCCCC/C=C/[C@@H](O)[C@H](CO)NC(C)=O [N-Ac-SP, (2S,3R,4E)-2-(acetylamino)-4-octadecene-1,3-diol] | Interactions between the two acetylsphingosines and Aβ exhibited spontaneous complexation showing an endothermic process |
| CCCCCCCCCCCCC/C=C/[C@@H](O)[C@@H](N)CO [SP, (2S,3R)-2-aminooctadec-4-trans-ene-1,3-diol] | For the association of SP with Aβ, an endothermic isotherm was recorded with negative Gibbs free energy change |
